Read-outs that look alike come from different tables or passages of the source.
Experiments:
Format in all cases: cell-based
[1] = tested on: KRas-mediated Phosphorylation of ERK in AsPC-1 cells; test: Cisbio HTRF pERK assay, AsPC-1 cells; settings: for IC50: 3 hrs compound, read-out: Inhibition (HTRF IC50 nM) of KRas-mediated Phosphorylation of ERK, AsPC-1
[2] = tested on: KRas-mediated Phosphorylation of ERK in H727 cells; test: Cisbio HTRF pERK assay, H727 cells; settings: for IC50: 3 hrs compound, read-out: Inhibition (HTRF IC50 nM) of KRas-mediated Phosphorylation of ERK, H727
[3] = tested on: KRas-mediated Phosphorylation of ERK in HCT116 cells; test: Cisbio HTRF pERK assay, HCT116 cells; settings: for IC50: HCT116 cells, 3 hrs compound, read-out: Inhibition (HTRF IC50 nM) of KRas-mediated Phosphorylation of ERK, HCT116
[4] = tested on: KRas-mediated Phosphorylation of ERK in A549 cells; test: Cisbio HTRF pERK assay, A549 cells; settings: for IC50: A549 cells, 3 hrs compound, read-out: Inhibition (HTRF IC50 nM) of KRas-mediated Phosphorylation of ERK, A549
[5] = tested on: KRas-mediated Phosphorylation of ERK in H460 cells; test: Cisbio HTRF pERK assay, H460 cells; settings: for IC50: H460 cells, 3 hrs compound, read-out: Inhibition (HTRF IC50 nM) of KRas-mediated Phosphorylation of ERK, H460
[6] = tested on: KRas-mediated Phosphorylation of ERK in H358 cells; test: Cisbio HTRF pERK assay, H358 cells; settings: for IC50: H358 cells, 3 hrs compound, read-out: Inhibition (HTRF IC50 nM) of KRas-mediated Phosphorylation of ERK, H358
[7] = tested on: KRas-mediated Phosphorylation of ERK in PSN1 cells; test: Cisbio HTRF pERK assay, PSN1 cells; settings: 3 hour compound, read-out: Inhibition (HTRF IC50 nM) of KRas-mediated Phosphorylation of ERK, PSN1
Description: Inhibition of KRas Phosphorylation of ERK (HTRF) by Exemplary Compounds of Formula (I) • Cisbio HTRF Advanced pERK Assay Catalog #64AERPEH • Cell: MKN1, PSN1 • Procedure: • Day 1: Seed 6,000 cells/well −25 μl/well in 384-well white solid bottom plate; RPM1_10% FBS.

SMILES | IC50 [2] [nM] | IC50 [3] [nM] | IC50 [4] [nM] | IC50 [5] [nM] | IC50 [6] [nM] | IC50 [7] [nM] | IC50 ([7]; Homo sapiens, PSN1, 3 h) [nM] | IC50 ([1]; Homo sapiens, ASPC1, 3 h) [nM] | IC50 [1] [nM] | inhibition at 0.1 µM ([1]; Homo sapiens, ASPC1, single point at 100 nM) [%] | inhibition at 0.1 µM ([2]; Homo sapiens, NCI-H727, single point at 100 nM) [%] | inhibition at 0.1 µM ([3]; Homo sapiens, HCT-116, HCT116 cells, single point at 100 nM) [%] | inhibition at 0.1 µM ([4]; Homo sapiens, A549, A549 cells, single point at 100 nM) [%] | inhibition at 0.1 µM ([5]; Homo sapiens, NCI-H460, H460 cells, single point at 100 nM) [%] | inhibition at 0.1 µM ([6]; Homo sapiens, NCI-H358, H358 cells, single point at 100 nM) [%]
CCc1c(F)ccc2cc(O)cc(-c3ccc4c(N5CCCC6(CCO6)C5)nc(OC[C@@]56CCCN5C[C@H](F)C6)nc4c3F)c12 (stereo partly drawn) [Example 71, 5-ethyl-6-fluoro-4-(8-fluoro-2-(((2R,7aS)-2-fluorohexahydro-1H-pyrrolizin-7a-yl)methoxy)-4-(1-oxa-6-azaspiro[3.5]nonan-6-yl)quinazolin-7-yl)naphthalen-2-ol] | – | – | – | – | – | – | – | – | – | 90 | 65 | 38 | 82 | 87 | 94
N#Cc1c(N)sc2c(F)ccc(-c3c(Cl)cc4c(N5CC6CCC(C5)N6)nc(OC[C@@]56CCCN5C/C(=C\F)C6)nc4c3F)c12 [Example 179, (S)-4-(4-((1R,5S)-3,8-diazabicyclo[3.2.1]octan-3-yl)-6-chloro-8-fluoro-2-(((S,Z)-2-(fluoromethylene)tetrahydro-1H-pyrrolizin-7a(5H)-yl)methoxy)quinazolin-7-yl)-2-amino-7-fluorobenzo[b]thiophene-3-carbonitrile] | 6810 | 3770 | 3140 | 2320 | 2610 | – | – | – | 116 | – | – | – | – | – | –
CN(C)C(=O)c1cc2n(n1)CCCN(c1nc(OC[C@@]34CCCN3C/C(=C\F)C4)nc3c(F)c(-c4ccc(F)c5sc(N)c(C#N)c45)c(Cl)cc13)C2 (atropisomer, axis not shown) [Example 195, 5-((R)-7-(2-amino-3-cyano-7-fluorobenzo[b]thiophen-4-yl)-6-chloro-8-fluoro-2-(((S,Z)-2-(fluoromethylene)tetrahydro-1H-pyrrolizin-7a(5H)-yl)methoxy)quinazolin-4-yl)-N,N-dimethyl-5,6,7,8-tetrahydro-4H-pyrazolo[1,5-a][1,4]diazepine-2-carboxamide] | 2 | 6 | 2 | 2 | 1 | – | 115 | – | – | – | – | – | – | – | –

More lines, main results first:

IC50 [2] [nM] | IC50 [3] [nM] | IC50 [4] [nM] | IC50 [5] [nM] | IC50 [6] [nM] | IC50 [7] [nM] | IC50 ([7]; Homo sapiens, PSN1, 3 h) [nM] | IC50 ([1]; Homo sapiens, ASPC1, 3 h) [nM] | SMILES | IC50 [1] [nM] | inhibition at 0.1 µM ([1]; Homo sapiens, ASPC1, single point at 100 nM) [%] | inhibition at 0.1 µM ([2]; Homo sapiens, NCI-H727, single point at 100 nM) [%] | inhibition at 0.1 µM ([3]; Homo sapiens, HCT-116, HCT116 cells, single point at 100 nM) [%] | inhibition at 0.1 µM ([4]; Homo sapiens, A549, A549 cells, single point at 100 nM) [%] | inhibition at 0.1 µM ([5]; Homo sapiens, NCI-H460, H460 cells, single point at 100 nM) [%] | inhibition at 0.1 µM ([6]; Homo sapiens, NCI-H358, H358 cells, single point at 100 nM) [%]
3 | 17 | 12 | 9 | 1 | 1800 | – | – | CN(C)C(=O)n1cc2c(n1)CCCN(c1nc(OC[C@@]34CCCN3C[C@H](F)C4)nc3c(F)c(-c4ccc(F)c5sc(N)c(C#N)c45)c(Cl)cc13)C2 [Example 185, 5-((R)-7-(2-amino-3-cyano-7-fluorobenzo[b]thiophen-4-yl)-6-chloro-8-fluoro-2-(((2R,7aS)-2-fluorotetrahydro-1H-pyrrolizin-7a(5H)-yl)methoxy)quinazolin-4-yl)-N,N-dimethyl-5,6,7,8-tetrahydropyrazolo[4,3-c]azepine-2(4H)-carboxamide] | 2 | – | – | – | – | – | –
342 | 896 | 605 | 427 | 128 | – | – | 192 | CN(C)C(=O)c1cc2n(n1)CCCN(c1nc(OC[C@@]34CCCN3C/C(=C\F)C4)nc3c(F)c(-c4ccc(F)c5sc(N)c(C#N)c45)c(Cl)cc13)C2 (atropisomer, axis not shown) [Example 194, 5-((S)-7-(2-amino-3-cyano-7-fluorobenzo[b]thiophen-4-yl)-6-chloro-8-fluoro-2-(((S,Z)-2-(fluoromethylene)tetrahydro-1H-pyrrolizin-7a(5H)-yl)methoxy)quinazolin-4-yl)-N,N-dimethyl-5,6,7,8-tetrahydro-4H-pyrazolo[1,5-a][1,4]diazepine-2-carboxamide] | – | – | – | – | – | – | –
